Data reported in PubChem BioAssay AID1919017 (Molecular Pharmacology Branch, DTP, NCI, 2023).

System: SW1271 complex spheroids with HUVEC/MSC, growth, % test/control
Assay: Anticancer human tumor SW1271 cell line growth inhibition [AhR];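 also: spheroids exposed to agents for 7 days before readout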
Settings: for viability, T/C: stronger effect = lower value
Procedure, shortened: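 Spheroids combined tumor cells with HUVEC endothelial cells and human MSCs as stroma. AhR antagonists were paired with standard or investigational drugs, each dosed in half-log steps down from near clinical Cmax, or from 10 microM where Cmax was unknown.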

[1] = curve of first compound, second compound 0.1 µM
[2] = curve of first compound, second compound 0.316 µM
[3] = curve of first compound, second compound 1 µM
[4] = curve of first compound, second compound 3.16 µM
[5] = curve of first compound, second compound 10 µM
[6] = second compound 0.1 µM, first compound 0.0316 µM
[7] = second compound 0.1 µM, first compound 0.1 µM
[8] = second compound 0.1 µM, first compound 0.316 µM
[9] = second compound 0.1 µM, first compound 1 µM
[10] = second compound 0.1 µM, first compound 3.16 µM
[11] = second compound 0.1 µM, first compound 10 µM
[12] = second compound 0.316 µM, first compound 0.0316 µM
[13] = second compound 0.316 µM, first compound 0.1 µM
[14] = second compound 0.316 µM, first compound 0.316 µM
[15] = second compound 0.316 µM, first compound 1 µM
[16] = second compound 0.316 µM, first compound 3.16 µM
[17] = second compound 0.316 µM, first compound 10 µM
[18] = second compound 1 µM, first compound 0.0316 µM
[19] = second compound 1 µM, first compound 0.1 µM
[20] = second compound 1 µM, first compound 0.316 µM
[21] = second compound 1 µM, first compound 1 µM
[22] = second compound 1 µM, first compound 3.16 µM
[23] = second compound 1 µM, first compound 10 µM
[24] = second compound 3.16 µM, first compound 0.0316 µM
[25] = second compound 3.16 µM, first compound 0.1 µM
[26] = second compound 3.16 µM, first compound 0.316 µM
[27] = second compound 3.16 µM, first compound 1 µM
[28] = second compound 3.16 µM, first compound 3.16 µM
[29] = second compound 3.16 µM, first compound 10 µM
[30] = second compound 10 µM, first compound 0.0316 µM
[31] = second compound 10 µM, first compound 0.1 µM
[32] = second compound 10 µM, first compound 0.316 µM
[33] = second compound 10 µM, first compound 1 µM
[34] = second compound 10 µM, first compound 3.16 µM
[35] = second compound 10 µM, first compound 10 µM

SMILES	IC50 [1]	IC50 [2]	IC50 [3]	IC50 [4]	IC50 [5]	viability, T/C [6]	viability, T/C [7]	viability, T/C [8]	viability, T/C [9]	viability, T/C [10]	viability, T/C [11]	viability, T/C [12]	viability, T/C [13]	viability, T/C [14]	viability, T/C [18]	viability, T/C [19]	viability, T/C [24]	viability, T/C [25]	viability, T/C [30]	viability, T/C [31]	also measured
Nc1ccn(C2OC(CO)C(O)C2(F)F)c(=O)n1 (stereo unspecified) + Cc1ccccc1N=Nc1ccc(NC(=O)c2ccnn2C)c(C)c1	< 31.6 nM	66.1 nM	< 31.6 nM	< 31.6 nM	335 nM	39.2%	48.4%	47.2%	52.8%	41.3%	37.2%	54.6%	49.8%	41.8%	41.1%	50.1%	43.2%	51%	56.5%	57.3%	viability, T/C [15]: 39.5%; viability, T/C [16]: 39%; viability, T/C [17]: 45.1%; viability, T/C [20]: 56.7%; viability, T/C [21]: 41.5%; viability, T/C [22]: 45.6%; viability, T/C [23]: 40.3%; viability, T/C [26]: 40.7%; viability, T/C [27]: 44.2%; viability, T/C [28]: 39.7%; viability, T/C [29]: 48.5%; viability, T/C [32]: 50.2%; viability, T/C [33]: 43.1%; viability, T/C [34]: 44.7%; viability, T/C [35]: 50.4%
Nc1ccn(C2OC(CO)C(O)C2(F)F)c(=O)n1 (stereo unspecified) + CC(CO)NC(=O)c1cc(-c2ccc(Cl)cc2)nn(-c2cnn(C)c2)c1=O	> 10000 nM	2070 nM	> 10000 nM	3710 nM	5270 nM	59%	55%	52.6%	60.9%	54.9%	63.9%	56.5%	59.8%	46.3%	53.1%	60.3%	48.4%	58.7%	45.3%	58.1%	viability, T/C [15]: 50.3%; viability, T/C [16]: 54.9%; viability, T/C [17]: 46.1%; viability, T/C [20]: 59%; viability, T/C [21]: 61.2%; viability, T/C [22]: 53.6%; viability, T/C [23]: 55.3%; viability, T/C [26]: 56.1%; viability, T/C [27]: 59.4%; viability, T/C [28]: 47.8%; viability, T/C [29]: 42.4%; viability, T/C [32]: 57.4%; viability, T/C [33]: 59.8%; viability, T/C [34]: 54.5%; viability, T/C [35]: 44%
Cc1ccccc1N=Nc1ccc(NC(=O)c2ccnn2C)c(C)c1	–	–	–	–	–	–	–	–	–	–	–	–	–	–	–	–	–	–	–	–	IC50 (compound alone, run of 08/22/2022): > 10000 nM
O=C(c1cc(Cc2n[nH]c(=O)c3ccccc23)ccc1F)N1CCN(C(=O)C2CC2)CC1 + Cc1cncc(-c2nc(NCCc3c[nH]c4ccccc34)c3ncn(C(C)C)c3n2)c1	> 10000 nM	> 10000 nM	> 10000 nM	> 10000 nM	< 31.6 nM	74.1%	75.8%	83.6%	75.6%	102%	100%	84.9%	94.2%	95.5%	84.9%	91.2%	90.7%	78.7%	50.1%	46.4%	viability, T/C [15]: 83.7%; viability, T/C [16]: 90.2%; viability, T/C [17]: 91.4%; viability, T/C [20]: 79.3%; viability, T/C [21]: 80.2%; viability, T/C [22]: 81.7%; viability, T/C [23]: 75.8%; viability, T/C [26]: 96.6%; viability, T/C [27]: 75.6%; viability, T/C [28]: 62.9%; viability, T/C [29]: 80.1%; viability, T/C [32]: 46.4%; viability, T/C [33]: 33.3%; viability, T/C [34]: 44.9%; viability, T/C [35]: 34.7%
CC[C@@]1(O)C(=O)OCc2c1cc1n(c2=O)Cc2cc3c(CN(C)C)c(O)ccc3nc2-1 + Cc1cncc(-c2nc(NCCc3c[nH]c4ccccc34)c3ncn(C(C)C)c3n2)c1	> 100 nM	> 100 nM	> 100 nM	> 100 nM	11.9 nM	105%	91%	–	–	–	–	102%	67%	–	77.4%	80.2%	96%	78%	45%	37.1%	viability, T/C (second compound 0.1 µM, first compound 0.000316 µM): 85.2%; viability, T/C (second compound 0.1 µM, first compound 0.001 µM): 99.7%; viability, T/C (second compound 0.1 µM, first compound 0.00316 µM): 124%; viability, T/C (second compound 0.1 µM, first compound 0.01 µM): 84.9%; viability, T/C (second compound 0.316 µM, first compound 0.000316 µM): 93.5%; viability, T/C (second compound 0.316 µM, first compound 0.001 µM): 114%; viability, T/C (second compound 0.316 µM, first compound 0.00316 µM): 108%; viability, T/C (second compound 0.316 µM, first compound 0.01 µM): 94.3%; viability, T/C (second compound 1 µM, first compound 0.000316 µM): 100%; viability, T/C (second compound 1 µM, first compound 0.001 µM): 118%; viability, T/C (second compound 1 µM, first compound 0.00316 µM): 108%; viability, T/C (second compound 1 µM, first compound 0.01 µM): 88.9%; viability, T/C (second compound 3.16 µM, first compound 0.000316 µM): 95.2%; viability, T/C (second compound 3.16 µM, first compound 0.001 µM): 109%; viability, T/C (second compound 3.16 µM, first compound 0.00316 µM): 106%; viability, T/C (second compound 3.16 µM, first compound 0.01 µM): 86.5%; viability, T/C (second compound 10 µM, first compound 0.000316 µM): 66.1%; viability, T/C (second compound 10 µM, first compound 0.001 µM): 62.2%; viability, T/C (second compound 10 µM, first compound 0.00316 µM): 52%; viability, T/C (second compound 10 µM, first compound 0.01 µM): 54.5%
